# Laboratory results reported in US12440451B2, “Compositions and methods using an epigenetic inhibitor” (DANA-FARBER CANCER INSTITUTE, INC., priority 2017, dated 2025).
# Assays:
# [1] = test system: OT-I+ CD8+ T cells; assay: proliferation of activated T cells (total number of live cells by flow cytometry); format: cell-based, mouse; settings: FIG. 3
# Description: T cells treated with RGFP966 also show increased proliferation relative to untreated T cells. FIG. 3 is a bar chart the total number of live cells detected in flow cytometry for activated OT-I^+ CD8^+ T cells that have been treated with 10 μM, 1 μM RGFP966, and no RGFP966 (vehicle control).
# [2] = test system: H3K9-Ac and H3K27-Ac in CD8+ T cells; assay: ChIP-qPCR for H3K9ac and H3K27ac at promoter regions of 32 effector function genes; format: cell-based, mouse; settings: 3 μM, 5 days
# Description: Chromatin was extracted from sorted CD8^+ T cells activated with or without RGFP966 for 5 days as described in FIG. 1 and Example 1 above, and chromatin immunoprecipitation (ChIP) was performed for H3K9ac and H3K27 markers.
# Immunoprecipitated chromatin was analyzed using quantitative real-time PCR (qPCR) with primer probes for the promoter regions of a custom set of 32 genes known to be associated with various aspects of CD8^+ T cell effector function (effector cytokines, cytotoxicity, regulatory transcription factors, as well as positive and negative controls for data quality control). […] Histogram bars are presented in pairs for each marker, with the left hand bar of each pair (gray) representing data from untreated CD8^+ T cells and the right hand bar of each pair (black) representing data from CD8^+ T cells treated with 3 μM RGF966.
# [3] = test system: human CD8+ T cells; assay: activation of human CD8+ T cells with anti-CD3 and anti-CD28, flow cytometry; format: cell-based; settings: 10 μM; 7 days
# Description: Further investigation was conducted to discover whether the augmented cytotoxic effector phenotype observed in mouse CD8^+ T cells post-activation with HDAC3 inhibition was also true in human CD8^+ T cells. Total CD8^+ T cells were negatively isolated from the peripheral blood of healthy human donors, and activated in vitro using plate-bound anti-CD3 and soluble anti-CD28 antibodies in the presence or absence of 0 μM (vehicle control) or 10 μM RGFP966. Following 7 days of in vitro activation, without additional IL-2 supplementation, CD8^+ T cells were analyzed by flow cytometry for expression of markers associated with T cell activation, effector cytokines, and cytotoxicity. The results are summarized in the graphs of FIG. 13A.
# [4] = test system: other HDACs; settings: reported; cited from earlier work
smiles,measurement,setting,value
Nc1cc(F)ccc1NC(=O)/C=C/c1cnn(C/C=C/c2ccccc2)c1 [RGFP966],T cell proliferation (total number of live cells),[1]; 1 μM,increasing T cell proliferation over vehicle control
same,T cell proliferation (total number of live cells),[1]; 10 μM,increasing T cell proliferation as compared to T cells treated with 1 μM RGFP966
same,"histone acetylation at GZMB, FASL, TBX21, PRDM1 and ID2",[2],most significant changes in histone acetylation
same,"H3K9 and H3K27 acetylation at promoters of IFN-γ, TNF-α and IL-2",[2]; not always significant,generally had increased H3K9 and H3K27 acetylation
same,expression of CD25,[3],upregulation
same,expression of CD44,[3],upregulation
same,expression of granzyme B,[3],upregulation
same,concentration range at which other HDACs are not inhibited,[4],< 15 µM
